Experimental data: article PMC6995558, “Biological Evaluation, Molecular Docking, and SAR Studies of Novel 2-(2,4-Dihydroxyphenyl)-1H- Benzimidazole Analogues” (Biomolecules, 2019)

Legend:
[1] = molecular target: T1, Acetylcholinesterase (AChE, E.C. 3.1.1.7, from human erythrocytes) (Homo sapiens, UniProt P22303); experiment: biochemical; assay type: biochemical; details: for Selectivity for AChE: IC50(BuChE)/IC50(AChE); for IC50: means ± SD of three independent experiments
T1 construct: Acetylcholinesterase (AChE, E.C. 3.1.1.7, from human erythrocytes); purchased Sigma-Aldrich (Steinheim, Germany); host or cells: human erythrocytes (natural source)
Experimental: (§1) The details were described previously.
(§2) Their potency was determined using the modified Ellman’s method and expressed as the half of maximal inhibitory concentration, IC50 [34].

[2] = molecular target: T2, butyrylcholinesterase (BuChE, E.C. 3.1.1.8, from equine serum) (Equus caballus, UniProt P81908); experiment: biochemical; details: means ± SD of three experiments; read-out: BuChE IC50
T2 construct: butyrylcholinesterase (BuChE, E.C. 3.1.1.8, from equine serum); purchased Sigma-Aldrich (Steinheim, Germany); host or cells: equine serum (natural source)
Experimental: as §1, §2

AChE = molecular target: T3, AChE (Homo sapiens, UniProt P22303); experiment: Kinetic characterization of AChE inhibition (Lineweaver–Burk); assay type: biochemical; details: for υmax: AChE; for Type of AChE inhibition: Lineweaver–Burk plots analysis
T3 construct: Acetylcholinesterase (AChE, E.C. 3.1.1.7, from human erythrocytes); purchased Sigma-Aldrich (Steinheim, Germany); host or cells: human erythrocytes (natural source)
Experimental: The kinetic analysis was evaluated according to the Ellman’s method. Plots of 1/velocity versus the reciprocal substrate concentration were constructed at different final concentrations of the ATC iodide in the range of 100–10 µM. […] The tested medium contained DTNB solution (0.4 mg/mL), AChE solution (2 U/mL) or BuChE solution (4 U/mL), solution of the examined compound, and different concentrations of the ATC iodide substrate solution. Absorbance was detected at 412 nm at room temperature after 7 min. The obtained data were calculated and presented on the Lineweaver–Burk plot. The determined the Michaelis-Menten constant (KM) and the maximum velocity of the enzyme (υmax) values were used to define the type of enzyme inhibition.
The mechanism of AChE inhibition was investigated for inhibitors 1 and 5 as the most valuable compounds. […]

BuChE = molecular target: T4, BuChE (Equus caballus, UniProt P81908); experiment: Kinetic characterization of BuChE inhibition (Lineweaver–Burk); assay type: biochemical; details: for υmax: BuChE; for Mechanism of BuChE inhibition: Lineweaver–Burk plots analysis
T4 construct: butyrylcholinesterase (BuChE, E.C. 3.1.1.8, from equine serum); purchased Sigma-Aldrich (Steinheim, Germany); host or cells: equine serum (natural source)
Experimental: The kinetic analysis was evaluated according to the Ellman’s method. Plots of 1/velocity versus the reciprocal substrate concentration were constructed at different final concentrations of the ATC iodide in the range of 100–10 µM. The studies were carried out using the final concentrations of 1 inhibitor: (AChE: 0.25, 1.0 µM; BuChE: 0.25, 1.2 µM) and 5 (AChE: 0.1, 1.0 µM; BuChE: 0.25, 0.55 µM) and without it. The tested medium contained DTNB solution (0.4 mg/mL), AChE solution (2 U/mL) or BuChE solution (4 U/mL), solution of the examined compound, and different concentrations of the ATC iodide substrate solution. Absorbance was detected at 412 nm at room temperature after 7 min. The obtained data were calculated and presented on the Lineweaver–Burk plot. The determined the Michaelis-Menten constant (KM) and the maximum velocity of the enzyme (υmax) values were used to define the type of enzyme inhibition.
The mechanism of AChE inhibition was investigated for inhibitors 1 and 5 as the most valuable compounds. The Lineweaver–Burk plots present 1/velocity versus 1/substrate concentrations in the range of 100–10 µM for compounds 5 (0.1, 1.0 µM) and 1 (0.25, 1.0 µM) and without inhibitors (0 µM) (Figure 2).

[3] = molecular target: T5, Amyloid β-peptide (1–42) (Aβ42) (Homo sapiens, UniProt P05067); experiment: biochemical; details: ThT fluorescence, 24 h at 37 °C; means ± SD of three experiments; read-out: IC50(Aβ(1–42)) self-induced aggregation
T5 construct: Amyloid β-peptide, (1–42) (Aβ42), was purchased from Aldrich; purchased Aldrich
Experimental: Amyloid β-peptide, (1–42) (Aβ42), was purchased from Aldrich. Aβ42 was diluted in the phosphate buffer (pH 8.0) to obtain a 125.8 µM solution. The compounds under study were first dissolved in a small amount of methanol, and then further diluted in the phosphate buffer to the final concentration of 5–160 μM. To study the Aβ42 aggregation inhibition, the fluorescence emission of thioflavin T (ThT) was followed with curcumin as the reference compound [35, 36]. At first, the Aβ42 (10 μL) samples and the tested compounds (10 μL) were diluted with the phosphate buffer (60 μL) and then they were incubated for 24 h at 37 °C without stirring. As for the control, a sample of the peptide was incubated without the inhibitor. The tests were carried out in black, flat-bottom, 96-well plates. Then 20 µL of 2.5 µM ThT in 50 mM glycine–NaOH (pH 8.5) was added and incubated for 5 min. Fluorescence was monitored with the excitation at 446 nm and the emission at 490 nm. A time scan of fluorescence was performed and the intensity values reached the plateau (300 s). […]. The reported values were obtained as the mean ± SD of triplicate of three independent experiments.
Nowadays, the amyloid hypothesis has become the dominating paradigm for understanding AD [44]. Aβ(1–42) is the most amyloidogenic Aβ fragment found in the AD plaques. […].

[4] = In vitro antioxidant activity assay (DPPH radical scavenging); details: DPPH 100 μM in methanol, 37 °C, 30 min; means ± SD of three experiments; read-out: IC50(DPPH) radical scavenging effect
Experimental: Antioxidant activity of each compound and standards (rutin) was assessed based on the radical scavenging effect of stable DPPH free radical. An amount of 10 μL of each tested compound or standard series of different concentrations (from 0.0 to 100 µM) was added to 9 mL of methanol solution of 2,2-diphenyl-1-picrylhydrazyl (DPPH) (100 μM). After incubation at 37 °C for 30 min, decrease in the absorbance of each solution was measured at 520 nm. The absorbance of the blank sample containing the same amount of DMSO and DPPH solution was also prepared and measured. All experiments were conducted in triplicate. The scavenging potential was compared with a solvent control (0% radical scavenging) and the standard compound. Radical scavenging activity (%AA) was calculated by the following formula: (%AA) = [(A0 − A1)/A0] × 100%(3) in which (A0) is the absorbance of the blank sample and (A1) is the absorbance of the tested compound (t = 30 min).
Reactive oxygen species are a causal factor in the process of aging and the cumulative damage has been associated with AD [45]. In this study, the DPPH radical scavenging activity of the newly synthesized compounds was estimated using the Brand-Williams method.

[5] = RP-18 HPLC chromatography lipophilicity estimation; assay type: physicochemical; details: for −S (slope): methanol/acetate buffer pH 4.0; for log kw (intercept): methanol/acetate buffer pH 4.0, extrapolated to pure water
Experimental: The Eurosil Bioselect C18 (5 μm, 300 × 4.6 mm) column was used as the stationary phase. The mobile phase consisted of different volume mixtures of methanol and 20 mM acetate buffer as the aqueous phase to give pH 4.0. The organic modifier concentration ranged from 0.30 to 0.75, depending on the structure of the compound at 0.05 (0.1) intervals. The flow rate was 0.5 cm^3·min^−1 at room temperature. Measurements were made at 292 nm. The retention time of an unretained solute (t0) was determined by the injection of a small amount of acetone dissolved in water. […] This is described by the Soczewiński–Wachtmeister dependence: log k = log kw + S (% organic modifier)(1) in which log kw is the retention factor of a solute with pure water as the mobile phase (intercept) and S is the regression curve (slope). The log k values were calculated as log k = log (tR − t0)/t0, where tR is the retention time of a solute and t0 is the retention time of an unretained solute.
To find the structure–activity relationships, some quantities of the compounds were estimated (Table 5). They included the lipophilicity parameter log kw obtained by RP-HPLC and calculated in silico log P, the topological polar surface area (tPSA), and the molar refractivity (MR) (Table 5). The log kw and S parameters obtained by the extrapolation technique are commonly used as lipophilicity descriptors.

[6] = inhibitor concentration 0.25 µM

T3 sequence (P22303 32-617 isoform P22303-2 limits assumed): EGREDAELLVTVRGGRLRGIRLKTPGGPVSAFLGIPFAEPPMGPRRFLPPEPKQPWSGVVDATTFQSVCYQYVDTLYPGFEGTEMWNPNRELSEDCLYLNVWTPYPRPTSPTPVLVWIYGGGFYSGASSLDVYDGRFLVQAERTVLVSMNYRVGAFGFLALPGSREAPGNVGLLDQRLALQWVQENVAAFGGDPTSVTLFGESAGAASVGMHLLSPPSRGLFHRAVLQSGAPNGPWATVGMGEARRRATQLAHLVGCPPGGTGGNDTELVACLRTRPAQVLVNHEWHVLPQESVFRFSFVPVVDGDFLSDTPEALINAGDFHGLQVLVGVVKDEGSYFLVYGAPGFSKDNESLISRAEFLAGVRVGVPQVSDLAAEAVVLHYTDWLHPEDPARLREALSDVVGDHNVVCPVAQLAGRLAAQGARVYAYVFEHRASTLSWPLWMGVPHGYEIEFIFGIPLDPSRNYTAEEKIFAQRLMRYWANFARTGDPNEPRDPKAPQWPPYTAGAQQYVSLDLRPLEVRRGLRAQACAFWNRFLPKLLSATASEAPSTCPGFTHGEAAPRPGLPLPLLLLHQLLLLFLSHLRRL
T1 sequence (P22303 32-617 isoform P22303-2 limits assumed): as above
T4 sequence (P81908 whole entry): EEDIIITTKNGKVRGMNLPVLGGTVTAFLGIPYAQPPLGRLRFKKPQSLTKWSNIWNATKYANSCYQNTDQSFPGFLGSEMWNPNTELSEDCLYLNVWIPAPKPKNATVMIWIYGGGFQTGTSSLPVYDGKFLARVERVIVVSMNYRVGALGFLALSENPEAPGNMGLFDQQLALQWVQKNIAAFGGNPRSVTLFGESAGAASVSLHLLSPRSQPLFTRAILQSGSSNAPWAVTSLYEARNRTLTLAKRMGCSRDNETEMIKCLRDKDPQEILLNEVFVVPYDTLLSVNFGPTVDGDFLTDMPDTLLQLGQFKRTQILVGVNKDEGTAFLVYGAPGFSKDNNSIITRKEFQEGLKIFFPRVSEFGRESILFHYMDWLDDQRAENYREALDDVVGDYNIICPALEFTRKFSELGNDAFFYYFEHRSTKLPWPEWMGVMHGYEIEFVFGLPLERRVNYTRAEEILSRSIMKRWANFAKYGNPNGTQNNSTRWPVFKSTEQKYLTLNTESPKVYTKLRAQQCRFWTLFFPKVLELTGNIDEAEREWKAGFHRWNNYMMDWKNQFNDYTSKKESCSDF
T5 sequence (P05067 672-713 limits assumed): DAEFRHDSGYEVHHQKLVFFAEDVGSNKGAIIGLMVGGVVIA
T2 sequence (P81908 whole entry): as the sequence (P81908 whole entry) above

**Q.** Which “Activity against AChE (in words)” value [1] does the source give for `Oc1cc(O)c(-c2nc3ccccc3[nH]2)cc1Cl` [Compound 1, 4-(1H-benzimidazol-2-yl)-6-chlorobenzene-1,3-diol] here?
**A.** active

**Q.** What about the “Selectivity for AChE” value [1] of the same compound?
**A.** 55.8

**Q.** What about the IC50 [1] of the same compound?
**A.** 76 ± 2 nM

**Q.** What about the IC50 [2] of the same compound?
**A.** 4240 ± 205 nM

**Q.** And the υmax (AChE; inhibitor concentration 0.25 μM)?
**A.** 135.14 A min^−1

**Q.** What about the υmax (AChE; inhibitor concentration 1.0 μM) of the same compound?
**A.** 105.26 A min^−1

**Q.** And the “Type of AChE inhibition” value (AChE)?
**A.** mixed type of inhibition

**Q.** And the υmax (BuChE; [6])?
**A.** 322.58 A min^−1

**Q.** What about the υmax (BuChE; inhibitor concentration 1.2 µM) of the same compound?
**A.** 163.93 A min^−1

**Q.** And the “Mechanism of BuChE inhibition” value (BuChE)?
**A.** the same relationships as in the case of AChE

**Q.** And the IC50 [3]?
**A.** 48000 ± 3430 nM

**Q.** And the IC50 [4]?
**A.** 641 ± 30 nM

**Q.** And the “−S (slope)” value [5]?
**A.** 3.896

**Q.** What about the “log kw (intercept)” value [5] of the same compound?
**A.** 3.602

**Q.** For `COc1ccc2nc(-c3ccc(O)c(C)c3O)[nH]c2c1` [Compound 5, 4-(6-Methoxy-1H-benzimidazol-2-yl)-2-methylbenzene-1,3-diol], which “Activity against AChE (in words)” value [1] is on record?
**A.** active

**Q.** What about the “Selectivity for AChE” value [1] of the same compound?
**A.** 1.4

**Q.** And the IC50 [1]?
**A.** 86 ± 21 nM

**Q.** And the IC50 [2]?
**A.** 117 ± 41 nM

**Q.** What about the υmax (AChE; inhibitor concentration 0.15 μM) of the same compound?
**A.** 175.44 A min^−1

**Q.** What about the υmax (AChE; inhibitor concentration 1.0 μM) of the same compound?
**A.** 120.48 A min^−1

**Q.** And the “Type of AChE inhibition” value (AChE)?
**A.** mixed type of inhibition

**Q.** And the υmax (BuChE; [6])?
**A.** 196.08 A min^−1

**Q.** What about the υmax (BuChE; inhibitor concentration 0.55 µM) of the same compound?
**A.** 178.57 A min^−1

**Q.** What about the “Mechanism of BuChE inhibition” value (BuChE) of the same compound?
**A.** the same relationships as in the case of AChE

**Q.** And the IC50 [3]?
**A.** 33100 ± 2070 nM

**Q.** And the IC50 [4]?
**A.** 627 ± 110 nM

**Q.** And the “−S (slope)” value [5]?
**A.** 5.179

**Q.** What about the “log kw (intercept)” value [5] of the same compound?
**A.** 4.591
